{"source": "PubChem BioAssay (NCI)", "experiment_in_all_cases": "NCI anticancer screen, dose series, 48 h", "key": {"CAKI-1 renal": {"tested_on": "CAKI-1 renal"}, "HOP-62 NSCLC": {"tested_on": "HOP-62 NSCLC"}, "HOP-92 NSCLC": {"tested_on": "HOP-92 NSCLC"}, "HT29 colon": {"tested_on": "HT29 colon"}, "IGROV1 ovarian": {"tested_on": "IGROV1 ovarian"}, "KM12 colon": {"tested_on": "KM12 colon"}, "NCI-H226 lung": {"tested_on": "NCI-H226 lung"}, "NCI-H460 lung": {"tested_on": "NCI-H460 lung"}, "RPMI-8226 leukemia": {"tested_on": "RPMI-8226 leukemia"}, "SNB-19 CNS": {"tested_on": "SNB-19 CNS"}}, "note": "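A five-concentration, 48-hour dose response in 96-well plates underlies each endpoint, interpolated linearly between surrounding concentrations. TGI: concentration producing complete growth inhibition.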", "data": [{"smiles": "COc1cccc(N[C@@H]2c3cc4c(cc3C(c3cc(OC)c(O)c(OC)c3)[C@H]3C(=O)OCC32)OCO4)c1", "note": "(stereo not given in full)", "values": [{"measurement": "TGI", "setting": "CAKI-1 renal", "value": 2.12, "unit": "µM"}, {"measurement": "TGI", "setting": "HOP-62 NSCLC", "value": 0.671, "unit": "µM"}, {"measurement": "TGI", "setting": "HOP-92 NSCLC", "value": 9.33, "unit": "µM"}, {"measurement": "TGI", "setting": "HT29 colon", "value": 10.5, "unit": "µM"}, {"measurement": "TGI", "setting": "IGROV1 ovarian", "value": 33.8, "unit": "µM"}, {"measurement": "TGI", "setting": "KM12 colon", "value": 7.06, "unit": "µM"}, {"measurement": "TGI", "setting": "NCI-H226 lung", "value": 2.05, "unit": "µM"}, {"measurement": "TGI", "setting": "NCI-H460 lung", "value": 1.6, "unit": "µM"}, {"measurement": "TGI", "setting": "RPMI-8226 leukemia", "value": 2.08, "unit": "µM"}, {"measurement": "TGI", "setting": "SNB-19 CNS", "value": 27.7, "unit": "µM"}]}, {"smiles": "CCOC(=O)c1cc2c([N+](=O)[O-])c(N)ccc2s1", "values": [{"measurement": "TGI", "setting": "CAKI-1 renal", "value": "> 100", "unit": "µM"}, {"measurement": "TGI", "setting": "HOP-62 NSCLC", "value": "> 100", "unit": "µM"}, {"measurement": "TGI", "setting": "HOP-92 NSCLC", "value": "> 100", "unit": "µM"}, {"measurement": "TGI", "setting": "HT29 colon", "value": "> 100", "unit": "µM"}, {"measurement": "TGI", "setting": "IGROV1 ovarian", "value": "> 100", "unit": "µM"}, {"measurement": "TGI", "setting": "KM12 colon", "value": "> 100", "unit": "µM"}, {"measurement": "TGI", "setting": "NCI-H226 lung", "value": "> 100", "unit": "µM"}, {"measurement": "TGI", "setting": "NCI-H460 lung", "value": "> 100", "unit": "µM"}, {"measurement": "TGI", "setting": "RPMI-8226 leukemia", "value": "> 100", "unit": "µM"}, {"measurement": "TGI", "setting": "SNB-19 CNS", "value": "> 100", "unit": "µM"}]}, {"smiles": "COC(=O)C1C(=O)N(C)C(=O)N2CCCC12", "note": "(stereo not given)", "values": [{"measurement": "TGI", "setting": "CAKI-1 renal", "value": "> 100", "unit": "µM"}, {"measurement": "TGI", "setting": "HOP-62 NSCLC", "value": "> 100", "unit": "µM"}, {"measurement": "TGI", "setting": "HOP-92 NSCLC", "value": "> 100", "unit": "µM"}, {"measurement": "TGI", "setting": "HT29 colon", "value": "> 100", "unit": "µM"}, {"measurement": "TGI", "setting": "IGROV1 ovarian", "value": "> 100", "unit": "µM"}, {"measurement": "TGI", "setting": "KM12 colon", "value": "> 100", "unit": "µM"}, {"measurement": "TGI", "setting": "NCI-H226 lung", "value": "> 100", "unit": "µM"}, {"measurement": "TGI", "setting": "NCI-H460 lung", "value": "> 100", "unit": "µM"}, {"measurement": "TGI", "setting": "RPMI-8226 leukemia", "value": "> 100", "unit": "µM"}, {"measurement": "TGI", "setting": "SNB-19 CNS", "value": "> 100", "unit": "µM"}]}, {"smiles": "C=CCOn1c(C=C)nc2ccc(C)cc21", "values": [{"measurement": "TGI", "setting": "CAKI-1 renal", "value": 49.3, "unit": "µM"}, {"measurement": "TGI", "setting": "HOP-62 NSCLC", "value": 78.3, "unit": "µM"}, {"measurement": "TGI", "setting": "HOP-92 NSCLC", "value": "> 100", "unit": "µM"}, {"measurement": "TGI", "setting": "HT29 colon", "value": 30.2, "unit": "µM"}, {"measurement": "TGI", "setting": "IGROV1 ovarian", "value": "> 100", "unit": "µM"}, {"measurement": "TGI", "setting": "KM12 colon", "value": 44.2, "unit": "µM"}, {"measurement": "TGI", "setting": "NCI-H226 lung", "value": 37.5, "unit": "µM"}, {"measurement": "TGI", "setting": "NCI-H460 lung", "value": 32.8, "unit": "µM"}, {"measurement": "TGI", "setting": "RPMI-8226 leukemia", "value": 24.9, "unit": "µM"}, {"measurement": "TGI", "setting": "SNB-19 CNS", "value": 46, "unit": "µM"}]}, {"smiles": "NCC(O)CSCc1ccc(Cl)cc1", "note": "(stereo not given)", "values": [{"measurement": "TGI", "setting": "CAKI-1 renal", "value": "> 100", "unit": "µM"}, {"measurement": "TGI", "setting": "HOP-62 NSCLC", "value": "> 100", "unit": "µM"}, {"measurement": "TGI", "setting": "HOP-92 NSCLC", "value": "> 100", "unit": "µM"}, {"measurement": "TGI", "setting": "HT29 colon", "value": "> 100", "unit": "µM"}, {"measurement": "TGI", "setting": "IGROV1 ovarian", "value": "> 100", "unit": "µM"}, {"measurement": "TGI", "setting": "KM12 colon", "value": "> 100", "unit": "µM"}, {"measurement": "TGI", "setting": "NCI-H226 lung", "value": "> 100", "unit": "µM"}, {"measurement": "TGI", "setting": "NCI-H460 lung", "value": "> 100", "unit": "µM"}, {"measurement": "TGI", "setting": "RPMI-8226 leukemia", "value": "> 100", "unit": "µM"}, {"measurement": "TGI", "setting": "SNB-19 CNS", "value": "> 100", "unit": "µM"}]}]}
